Test results from patent US6821988B2, “3-cyanoquinolines as inhibitors of EGF-R and HER2 kinases” (Wyeth Holdings Corporation, priority 2001, dated 2004).
Values after ≈ are worked out from the molar mass of the structure shown. Values joined by “and” are separate entries in the source; they are usually repeats but may differ in a detail not shown here. Equal entries are not always repeated.

How the values were obtained:
[1] = test system: A431 (epidermoid carcinoma); assay: Inhibition of cancer cell growth, sulforhodamine B assay, A431; assay type: cell-based, human; details: A431, 2 days; for IC50: Homo sapiens, A-431, 48 h, read-out: Inhibition of Cancer Cell Growth in vitro IC50, A431
Description: (§1) […], A431 (epidermoid carcinoma), SKBR3 (breast carcinoma), SW620 (colon carcinoma), and MDA-MB435 (breast carcinoma), BT474 (breast carcinoma), and two murine lines, 3T3 (murine fiboblasts) and HER2-3T3 (murine fiboblasts transfected with human HER2) were used for cell proliferation assays. Cells were maintained in RPMI -1640 medium supplemented with 5% fetal bovine serum. Cells were plated in 96-well plates at the densities of 2.5×10^4/ml for 3T3 and 3T3/HER2 and 5.0×10^4/ml for the rest of the cell lines. On the next day, compounds were dosed at 0.5, 5, 50, 500, and 5000 ng/ml and cultured for 2 days. At the end of incubation, cell survival was determined by the sulforhodamine B assay as previously described (Skehan, P; Stornet, R.; Scudiero, D.; Monks, A.; McMahon, J.; Vistica D., Warren, J.; Bokbosch, H.; Kenny, S.; Boyd, M. New Colorimetric Cytotoxic Assay for Anticancer-Drug Screening. J. Natl. Cancer Inst. 1990, 82, 1107-1112). The IC50 values (the concentration needed to inhibit cell growth by 50%) were obtained from the growth curves and are shown below in Table 2 where the results of multiple determinations are included.

3T3 (murine fiboblasts) = assay: Inhibition of cell growth, sulforhodamine B assay, 3T3; assay type: cell-based; details: 3T3, 2 days; for IC50: Mus musculus, 48 h, read-out: Inhibition of Cancer Cell Growth in vitro IC50, 3T3
Description: as §1

[2] = target: T1, EGFR cytoplasmic domain (EGFR-CD, amino acid 645-1186) (Homo sapiens, UniProt P00533); assay: Inhibition of EGF-R kinase autophosphorylation, recombinant enzyme, DELFIA/time-resolved fluorometry; assay type: biochemical
T1 construct: EGFR cytoplasmic domain (EGFR-CD, amino acid 645-1186); made in house; host or cells: Sf-9 insect cells, baculovirus (pFASTBacHTc)
T1 sequence (P00533 669-1210): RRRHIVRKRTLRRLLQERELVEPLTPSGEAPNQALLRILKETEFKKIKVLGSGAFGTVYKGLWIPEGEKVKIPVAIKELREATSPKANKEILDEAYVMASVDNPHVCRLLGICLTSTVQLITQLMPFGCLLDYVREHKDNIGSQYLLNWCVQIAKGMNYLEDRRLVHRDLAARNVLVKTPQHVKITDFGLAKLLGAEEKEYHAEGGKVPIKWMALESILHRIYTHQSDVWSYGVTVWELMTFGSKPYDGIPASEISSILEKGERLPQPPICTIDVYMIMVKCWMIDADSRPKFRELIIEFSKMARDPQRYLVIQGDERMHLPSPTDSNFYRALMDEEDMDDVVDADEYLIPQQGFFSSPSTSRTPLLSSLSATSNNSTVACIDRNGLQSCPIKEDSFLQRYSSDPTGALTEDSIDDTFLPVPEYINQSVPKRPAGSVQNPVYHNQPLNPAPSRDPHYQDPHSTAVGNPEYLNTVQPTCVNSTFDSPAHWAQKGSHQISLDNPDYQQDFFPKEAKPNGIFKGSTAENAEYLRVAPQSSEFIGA
Description: (§2) A 1.7 kb cDNA encoding human HER2 cytoplasmic domain (HER2-CD, amino acid 676-1255) and 1.6 kb cDNA for EGFR cytoplasmic domain (EGFR-CD, amino acid 645-1186) were cloned into baculoviral expression vectors, pBlueBacHis2B (Invitrogen) and pFASTBacHTc (GIBCO), separately. A sequence encoding (His)6 is located at the 5′ end upstream to HER2 and EGFR sequences. Sf-9 cells were infected at moi=10 for 3 days for protein expression. Sf-9 cell pellets were solubilized on ice in buffer containing 50 mM HEPES, pH 7.4, 10 mM NaCl, 1% Triton, 10 μM ammonium molybdate, 100 μM sodium vanadate, 10 μg/ml aprotinin, 10 μg/ml leupeptin, 10 μg/ml pepstatin, and 16 ug/ml benzamidine HCl for 20 min followed by 20 min centrifugation. Crude extract supernatant was passed through equilibrated Ni-NTA superflow packed column (Qiagen, Valencia, Calif.) and wash with 10 mM, and 100 mM imidazole to remove unspecific binding. Histidine-tagged proteins were eluted with 250 mM and 500 mM imidazole and dialyzed against 50 mM NaCl, 20 mM HEPES, 10% glycerol and 1 μg/ml each of aprotinin, leupeptin and pepstatin for 2 h. All the purification procedure was performed at 4° C. or on ice. Purified materials were subjected for electrophoresis followed by Coommassie blue stain to determine the purity of the preparation and Western blot for the identity of protein. Enzymes were aliquoted and stored at −80° C.
(§3) Inhibition of EGFR and HER2 kinase autophosphorylation was measured by a DELFIA/time-resolved fluorometry assay. Compounds were dissolved in 100% DMSO and diluted to the appropriate concentrations with 25 mM HEPES, pH 7.4. In each well, 10 μl of compound was incubated with 10 μl of recombinant EGF-R or HER2 enzyme (1:80 dilution in 100 mM HEPES) for 10 min at room temperature. Then, 10 μl of 5×buffer (containing 20 mM HEPES, 2 mM MnCl2, 100 uM Na3VO4 and 1 mM DTT) and 20 μl of 0.1 mM ATP/50 mM MgCl2 was added for 1 h. Positive and negative controls were included in each plate by incubation of enzyme with or without ATP/MgCl2. At the end of incubation, liquid was aspirated and washed three times with wash buffer. 75 μl (400 ng).of europium-labeled anti-phosphotyrosine antibody was added to each well for another hour of incubation. After wash, enhancement solution was added and the signal was detected by Victor (Wallac Inc) with excitation at the wavelength of 340 nm and emission at the wavelength of 615 nm. All reagents were supplied by Wallac Inc (Wallac/Perkin-Elimer). Percentage of autophosphorylation inhibition by compound was calculated by […]. IC50 values were obtained from curves of percentage inhibition with 8 doses of compound.

[3] = test system: HER2-3T3 (murine fiboblasts transfected with human HER2); assay: Inhibition of cell growth, sulforhodamine B assay, HER2-3T3; assay type: cell-based; details: HER2-3T3, 2 days; for IC50: Mus musculus, 48 h, read-out: Inhibition of Cancer Cell Growth in vitro IC50, HER2-3T3
Description: as §1

[4] = target: T2, human HER2 cytoplasmic domain (HER2-CD, amino acid 676-1255) (Homo sapiens, UniProt P04626); assay: Inhibition of HER2 kinase autophosphorylation, recombinant enzyme, DELFIA/time-resolved fluorometry; assay type: biochemical; details: for inhibition at 2 µg/mL: read-out: HER2 % Inhibition at 2 μg/mL; for IC50: recombinant HER2 autophosphorylation
T2 construct: human HER2 cytoplasmic domain (HER2-CD, amino acid 676-1255); made in house; host or cells: Sf-9 insect cells, baculovirus (pBlueBacHis2B)
T2 sequence (P04626 676-1255): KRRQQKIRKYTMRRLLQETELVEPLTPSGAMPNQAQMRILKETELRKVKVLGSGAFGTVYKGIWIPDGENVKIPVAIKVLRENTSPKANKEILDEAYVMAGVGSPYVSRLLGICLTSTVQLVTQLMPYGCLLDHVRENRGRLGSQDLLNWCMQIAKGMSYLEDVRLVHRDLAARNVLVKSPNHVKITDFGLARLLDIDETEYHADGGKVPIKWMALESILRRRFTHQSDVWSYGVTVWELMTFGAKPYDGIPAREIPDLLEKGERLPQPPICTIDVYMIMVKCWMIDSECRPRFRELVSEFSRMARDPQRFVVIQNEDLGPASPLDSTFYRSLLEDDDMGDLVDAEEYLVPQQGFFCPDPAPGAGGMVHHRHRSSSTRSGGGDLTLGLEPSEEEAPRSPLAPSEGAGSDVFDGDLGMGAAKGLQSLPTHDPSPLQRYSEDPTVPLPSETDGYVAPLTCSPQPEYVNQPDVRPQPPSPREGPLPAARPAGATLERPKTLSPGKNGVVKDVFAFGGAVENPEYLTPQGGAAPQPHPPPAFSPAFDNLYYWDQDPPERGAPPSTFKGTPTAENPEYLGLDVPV
Description: as §2, §3

BT474 (breast carcinoma) = assay: Inhibition of cancer cell growth, sulforhodamine B assay, BT474; assay type: cell-based; details: Homo sapiens, BT-474, 48 h; BT474, 2 days; read-out: Inhibition of Cancer Cell Growth in vitro IC50, BT474
Description: as §1

SKBR3 (breast carcinoma) = assay: Inhibition of cancer cell growth, sulforhodamine B assay, SKBR3; assay type: cell-based, human; details: SKBR3, 2 days; for IC50: Homo sapiens, SK-BR-3, 48 h, read-out: Inhibition of Cancer Cell Growth in vitro IC50, SKBR3
Description: as §1

[5] = test system: MDA-MB435 (breast carcinoma); assay: Inhibition of cancer cell growth, sulforhodamine B assay, MDA-MB435; assay type: cell-based, human; details: MDA-MB435, 2 days; for IC50: Homo sapiens, MDA-MB-435, 48 h, read-out: Inhibition of Cancer Cell Growth in vitro IC50, MDA-MB435
Description: as §1

SW620 (colon carcinoma) = assay: Inhibition of cancer cell growth, sulforhodamine B assay, SW620; assay type: cell-based, human; details: SW620, 2 days; for IC50: Homo sapiens, SW-620, 48 h, read-out: Inhibition of Cancer Cell Growth in vitro IC50, SW620
Description: as §1

[6] = test system: Murine 3T3 fibroblasts, tranfected with Her2; assay: In vivo inhibition of the growth of tumors of murine 3T3 fibroblasts transfected with HER2 in nude mice; set-up: species or system Athymic nu/nu female mice
Description: Representative compounds of this invention (listed below) were evaluated in an in vivo standard pharmacological test procedure which measures their ability to inhibit tumor growth in nude mice. Murine 3T3 fibroblasts, tranfected with Her2 were grown in vitro. Athymic nu/nu female mice (Charles River, Wilmington, Mass.) were used in this in vivo standard pharmacological test procedure. A unit of 2×10^6 cells was injected SC into mice (day zero). Beginning on day 1, mice were treated IP every other day for a total of 11 days with a dose of 30 mg/kg/dose of the compound to be evaluated in 0.5% Methocel/0.4% Tween 80. Control animals received vehicle alone. […] Absolute tumor growth in mgs, (mean tumor mass on days 7, 14 and 21), is calculated for each treatment group. Statistical analysis (Student t-test) of Mean Tumor Mass compares treated verses control groups. A p-value of ≦0.05 indicates a statistically significant reduction in tumor growth of treated group compared to the vehicle control.
The compound of Example 7 was evaluated for its ability to inhibit the growth of a murine fiboblast tumor that was transfected with human HER2 in vivo using the standard pharmacological test procedure described above.

[7] = 30 mg/kg/dose IP on days 1, 3, 5, 7, 9 and 11, day 7
[8] = 30 mg/kg/dose IP on days 1, 3, 5, 7, 9 and 11, day 14

| Structure (SMILES) | Inhibition of Cancer Cell Growth in vitro IC50, A431 [1] | IC50 [1] [µg/mL] | Inhibition of Cancer Cell Growth in vitro IC50, 3T3 (3T3 (murine fiboblasts)) | IC50 (3T3 (murine fiboblasts)) [µg/mL] | Inhibition of Cancer Cell Growth in vitro IC50, HER2-3T3 [3] | IC50 [3] [µg/mL] | IC50 [4] | Inhibition of Cancer Cell Growth in vitro IC50, SKBR3 (SKBR3 (breast carcinoma)) [µg/mL] | IC50 (SW620 (colon carcinoma)) [µg/mL] | further results |
| --- | --- | --- | --- | --- | --- | --- | --- | --- | --- | --- |
| COc1cc2ncc(C#N)c(Nc3ccc(Sc4nc(-c5ccccc5)cs4)c(Cl)c3)c2cc1NC(=O)CC(CN(C)C)N(C)C (centres unmarked) [Example 1] | 0.37 µg/mL and 0.28 µg/mL | 0.242 (≈ 0.36 µM) | 0.7 µg/mL and 0.57 µg/mL | 0.76 (≈ 1.13 µM) | 0.04 µg/mL and 0.03 µg/mL | 0.041 (≈ 0.061 µM) | 1320 nM and 787 nM |  |  | IC50 [2]: 4760 nM; inhibition at 2 µg/mL [4]: 63%; IC50 (BT474 (breast carcinoma)): 0.02 µg/mL (≈ 0.0297 µM) |
| COc1cc2ncc(C#N)c(Nc3ccc(F)c(Cl)c3)c2cc1NC(=O)CC(CN1CCC(O)C1)N1CCC(O)C1 (centres unmarked) [Example 2, N-[4-(3-Chloro-4-fluoro-phenylamino)-3-cyano-7-methoxy-quinolin-6-yl]-3,4-bis-(3-hydroxy-pyrrolidin-1-yl)-butyramide] | 0.466 µg/mL | 0.572 (≈ 0.981 µM) | 4.39 µg/mL | 4.47 (≈ 7.67 µM) | 0.702 µg/mL | 1.26 (≈ 2.16 µM) |  | 0.128 | 2.95 (≈ 5.06 µM) | IC50 (SKBR3 (breast carcinoma)): 0.129 µg/mL (≈ 0.221 µM); IC50 [5]: 4.05 µg/mL (≈ 6.95 µM); Inhibition of Cancer Cell Growth in vitro IC50, MDA-MB435 [5]: 3.25 µg/mL; melting point: 139 to 143 °C; inhibition at 2 µg/mL [4]: 57%; Inhibition of Cancer Cell Growth in vitro IC50, SW620 (SW620 (colon carcinoma)): 2.58 µg/mL |
| CCOc1cc2ncc(C#N)c(Nc3ccc(F)c(Cl)c3)c2cc1NC(=O)CC(C)N(C)C (centres unmarked) [Example 3, N-[4-(3-Chloro-4-fluoroanilino)-3-cyano-7-ethoxy-6-quinolinyl]-3-(dimethylamino)butanamide] | 0.27 µg/mL | 0.48 (≈ 1.02 µM) |  | 1.3 (≈ 2.77 µM) |  | 1.7 (≈ 3.62 µM) | 10000 nM | 0.17 | 1.1 (≈ 2.34 µM) | IC50 (SKBR3 (breast carcinoma)): 0.11 µg/mL (≈ 0.234 µM); EGF-R IC50 [2]: 0.33 µg/mL |
| CCOc1cc2ncc(C#N)c(Nc3ccc(OCc4ccccc4)c(Cl)c3)c2cc1NC(=O)CC(CCCN(C)C)N(C)C (centres unmarked) [Example 5, N-{4-[4-(Benzyloxy)-3-chloroanilino]-3-cyano-7-ethoxy-6-quinolinyl}-3,6-bis(dimethylamino)hexanamide] | 0.73 µg/mL | 0.87 (≈ 1.38 µM) |  | 0.42 (≈ 0.668 µM) |  | 1.1 (≈ 1.75 µM) | 1590 nM |  | 0.19 (≈ 0.302 µM) | IC50 [5]: 0.36 µg/mL (≈ 0.572 µM); Inhibition of Cancer Cell Growth in vitro IC50, MDA-MB435 [5]: 0.49 µg/mL; EGF-R IC50 [2]: 1.0 µg/mL |
| CCOc1cc2ncc(C#N)c(Nc3ccc(OCc4ccccc4)c(Cl)c3)c2cc1NC(=O)CC(CN1CCCC1)N1CCCC1 (centres unmarked) [Example 7, N-{4-[4-(Benzyloxy)-3-chloroanilino]-3-cyano-7-ethoxy-6-quinolinyl}-3,4-di(1-pyrrolidinyl)butanamide] |  |  | 0.37 µg/mL | 0.35 (≈ 0.536 µM) | 0.014 µg/mL | 0.017 (≈ 0.026 µM) | 33.7 nM | 0.0025 | 0.23 (≈ 0.352 µM) | inhibition of tumor growth (in words) ([6]; 30 mg/kg i.p.): significantly inhibited tumor growth; tumors in the control mice larger than tumors in treated mice (fold) ([6]; 30 mg/kg i.p., day 14): 8.5 times; % T/C Day 7 [6, 7]: 15%; Mean Tumor Weight Day 7 [6, 7]: 39 mg; % T/C Day 14 [6, 8]: 12%; Mean Tumor Weight Day 14 [6, 8]: 261 mg; Mean Tumor Weight Day 21 ([6]; 30 mg/kg/dose IP on days 1, 3, 5, 7, 9 and 11, day 21): 1849 mg; S/T = No. Survivors/No. on Day +28 post tumor cell implantation ([6]; 30 mg/kg/dose IP on days 1, 3, 5, 7, 9 and 11, day +28): 10/10; Inhibition of Cancer Cell Growth in vitro IC50, SW620 (SW620 (colon carcinoma)): 0.28 µg/mL |
| CCOc1cc2ncc(C#N)c(Nc3ccc(F)c(Cl)c3)c2cc1NC(=O)CC(CN(C)C)SCC(NC(=O)CC[C@@H](N)C(=O)O)C(=O)NCC(=O)O (stereo partly drawn) [Example 8, (2R)-2-amino-5-({2-[(carboxymethyl)amino]-1-[({3-{[4-(3-chloro-4-fluoroanilino)-3-cyano-7-ethoxy-6-quinolinyl]amino}-1-[(dimethylamino)methyl]-3-oxopropyl}sulfanyl)methyl]-2-oxoethyl}amino)-5-oxopentanoic acid] | 0.21 µg/mL | 0.2 (≈ 0.258 µM) |  | > 5 |  |  | 854 nM |  | > 5 | IC50 [2]: 2190 nM |
| CCOc1cc2ncc(C#N)c(Nc3ccc(OCc4ccccc4)c(Cl)c3)c2cc1NC(=O)CC(CN(C)C)N(C)C (centres unmarked) [Example 9, N-{4-[4-(Benzyloxy)-3-chloroanilino]-3-cyano-7-ethoxy-6-quinolinyl}-3,4-bis(dimethylamino)butanamide] |  |  |  |  |  |  |  |  |  | melting point: 102 to 104 °C |
